Experimental data: ChEMBL document CHEMBL1156829 (Proc Natl Acad Sci U S A, 2008)

Experiments:
[1] = NOVARTIS: Cytotoxicity against human hepatocellular carcinoma cell line (Huh7); assay type: toxicity, cell-based, Huh-7; conditions: Huh7 cells (hepatocellular carcinoma cell line)
Plasmodium falciparum [2] = assay: NOVARTIS: Inhibition of Plasmodium falciparum W2 (drug-resistant) proliferation in erythrocyte-based infection assay; assay type: functional, organism-based; conditions: Plasmodium falciparum, W2; read-out: EC50
Plasmodium falciparum [3] = assay: NOVARTIS: Inhibition of Plasmodium falciparum 3D7 (drug-susceptible) proliferation in erythrocyte-based infection assay; assay type: functional, organism-based; conditions: Plasmodium falciparum, 3D7

SMILES: Cc1ccc2ccc(C(Nc3ccccn3)c3ccc(Br)cc3)c(O)c2n1 (centres undefined)
- CC50 [1]: > 100 µM
- EC50 (Plasmodium falciparum [2]): 800 nM
- EC50 (Plasmodium falciparum [3]): 1220 nM

SMILES: c1ccc(-c2cccc(-c3ccccn3)n2)nc1 [TERPYRIDINE]
- CC50 [1]: 12.6 µM
- EC50 (Plasmodium falciparum [2]): 39.2 nM
- EC50 (Plasmodium falciparum [3]): 154 nM

SMILES: CC(=O)Nn1c(C(C)(C)C)nc2ccccc2c1=O
- CC50 [1]: > 10 µM
- EC50 (Plasmodium falciparum [2]): 2470 nM
- EC50 (Plasmodium falciparum [3]): > 1470 nM

SMILES: CO[C@H](C(=O)[C@@H](O)[C@@H](C)O)[C@@H]1Cc2cc3cc(O[C@H]4C[C@@H](O[C@@H]5C[C@@H](O)[C@@H](O)[C@@H](C)O5)[C@@H](O)[C@H](C)O4)c(C)c(O)c3c(O)c2C(=O)[C@H]1O[C@H]1C[C@@H](O[C@H]2C[C@@H](O[C@H]3C[C@](C)(O)[C@@H](O)[C@H](C)O3)[C@H](O)[C@@H](C)O2)[C@H](O)[C@H](C)O1
- CC50 [1]: > 10 µM
- EC50 (Plasmodium falciparum [2]): 208 nM
- EC50 (Plasmodium falciparum [3]): 497 nM

SMILES: C=CCNC(=S)N1CCc2c([nH]c3ccccc23)C1C(F)(F)F (centres undefined)
- CC50 [1]: 70.7 µM
- EC50 (Plasmodium falciparum [2]): 108 nM
- EC50 (Plasmodium falciparum [3]): 208 nM

SMILES: Cn1c(=O)c2c(nc3n2CC(O)CN3c2ccccc2)n(C)c1=O (centres undefined)
- CC50 [1]: > 10 µM
- EC50 (Plasmodium falciparum [2]): 162 nM
- EC50 (Plasmodium falciparum [3]): 72.6 nM

SMILES: CCOC(=O)c1c(CC)nc(-c2ccccc2)nc1C(=O)N1CCC(C)CC1
- CC50 [1]: 4.06 µM
- EC50 (Plasmodium falciparum [2]): < 13 nM
- EC50 (Plasmodium falciparum [3]): > 1250 nM

SMILES: COc1cc(C=NNc2nc3ccccc3[nH]2)cc(OC)c1OC
- CC50 [1]: 87.5 µM
- EC50 (Plasmodium falciparum [2]): 339 nM
- EC50 (Plasmodium falciparum [3]): 176 nM

SMILES: CN1c2ccccc2N(C)C1c1ccc2c(c1)OCO2
- CC50 [1]: > 10 µM
- EC50 (Plasmodium falciparum [2]): > 1410 nM
- EC50 (Plasmodium falciparum [3]): 1120 nM

SMILES: CCN1/C(=C\C=C\C2=[N+](C)c3ccccc3C2(C)C)N(c2ccccc2)c2ccccc21
- CC50 [1]: > 10 µM
- EC50 (Plasmodium falciparum [2]): 1260 nM
- EC50 (Plasmodium falciparum [3]): 1400 nM

SMILES: O=C(NC(=S)Nc1ccc([N+](=O)[O-])cc1Cl)c1ccco1
- CC50 [1]: > 10 µM
- EC50 (Plasmodium falciparum [2]): > 769 nM
- EC50 (Plasmodium falciparum [3]): > 1530 nM

SMILES: O=C(Nc1ccc(-c2nc3ccc(-c4nc5ccc(NC(=O)c6ccccc6[N+](=O)[O-])cc5[nH]4)cc3[nH]2)cc1)c1ccccc1[N+](=O)[O-]
- CC50 [1]: > 10 µM
- EC50 (Plasmodium falciparum [2]): 987 nM
- EC50 (Plasmodium falciparum [3]): > 1250 nM

SMILES: CCCCCCCC(=O)N1CCN(C(=O)C(NC(=O)Nc2ccc(Cl)cc2Cl)C(C)CC)CC1 (centres undefined)
- CC50 [1]: > 10 µM
- EC50 (Plasmodium falciparum [2]): 701 nM
- EC50 (Plasmodium falciparum [3]): > 40.8 nM

SMILES: CCC(c1nc2ccccc2c(=O)n1-c1cccc(C)c1)N(CCc1ccccc1)C(=O)Nc1c(C(C)C)cccc1C(C)C (centres undefined)
- CC50 [1]: > 8.51 µM
- EC50 (Plasmodium falciparum [2]): 1100 nM
- EC50 (Plasmodium falciparum [3]): 1070 nM

SMILES: Cc1ccc(C#N)c(SCc2nnc(-c3ccc(Cl)cc3)o2)n1
- CC50 [1]: > 10 µM
- EC50 (Plasmodium falciparum [2]): 108 nM
- EC50 (Plasmodium falciparum [3]): > 1250 nM

SMILES: C[n+]1c(/C=C\c2ccc(F)cc2)ccc2ccccc21
- CC50 [1]: > 10 µM
- EC50 (Plasmodium falciparum [2]): 14.2 nM
- EC50 (Plasmodium falciparum [3]): 274 nM

SMILES: COC(=O)C1CCN(C(=O)COC(c2ccccc2)c2cccnc2Cl)CC1 (centres undefined)
- CC50 [1]: > 2.45 µM
- EC50 (Plasmodium falciparum [2]): < 7.96 nM
- EC50 (Plasmodium falciparum [3]): > 1250 nM

SMILES: Fc1ccc(Nc2nc(NCC3CCCO3)c3ccccc3n2)cc1 (centres undefined)
- CC50 [1]: 9.53 µM
- EC50 (Plasmodium falciparum [2]): 282 nM
- EC50 (Plasmodium falciparum [3]): 214 nM

SMILES: CC1=[N+](CC(=O)c2ccc(C)cc2)CCn2c(C)ccc21
- CC50 [1]: > 100 µM
- EC50 (Plasmodium falciparum [2]): 1660 nM
- EC50 (Plasmodium falciparum [3]): 1050 nM

SMILES: CCCC1=[N+](CC(=O)c2ccc(C)cc2)CCn2c(C)ccc21
- CC50 [1]: > 10 µM
- EC50 (Plasmodium falciparum [2]): > 618 nM
- EC50 (Plasmodium falciparum [3]): 792 nM

SMILES: COc1cc(NC(C)CCCN(Cc2ccc(Cl)cc2)C(=O)Nc2ccc(Br)cc2)c2ncccc2c1 (centres undefined)
- CC50 [1]: > 5.6 µM
- EC50 (Plasmodium falciparum [2]): 788 nM
- EC50 (Plasmodium falciparum [3]): > 1250 nM

SMILES: CCCCCCN(C(=O)c1ccc2ccccc2c1)C(CC)c1nc2ccccc2c(=O)n1-c1cccc(Cl)c1 (centres undefined)
- CC50 [1]: > 10 µM
- EC50 (Plasmodium falciparum [2]): > 1130 nM
- EC50 (Plasmodium falciparum [3]): > 1250 nM

SMILES: Oc1c(C(Nc2ccccn2)c2ccc(Cl)cc2Cl)ccc2cccnc12 (centres undefined)
- CC50 [1]: > 10 µM
- EC50 (Plasmodium falciparum [2]): 160 nM
- EC50 (Plasmodium falciparum [3]): > 1300 nM

SMILES: O=C(c1nccs1)C1CCN(C(=O)c2cscn2)CC1
- CC50 [1]: > 10 µM
- EC50 (Plasmodium falciparum [2]): 1390 nM
- EC50 (Plasmodium falciparum [3]): > 1250 nM

SMILES: CCCCCCCSc1c(O)c2ccc(Cl)cc2[nH]c1=O
- CC50 [1]: > 10 µM
- EC50 (Plasmodium falciparum [2]): 272 nM
- EC50 (Plasmodium falciparum [3]): 122 nM

SMILES: Cc1cc(Oc2ncnc(N(C)CC(=O)OC(C)(C)C)c2[N+](=O)[O-])c2nncn2n1
- CC50 [1]: > 10 µM
- EC50 (Plasmodium falciparum [2]): > 684 nM
- EC50 (Plasmodium falciparum [3]): > 1630 nM

SMILES: CCCCN(C(=O)Nc1c(C(C)C)cccc1C(C)C)C(CC)c1nc2ccccc2c(=O)n1-c1cccc(Cl)c1 (centres undefined)
- CC50 [1]: > 6.29 µM
- EC50 (Plasmodium falciparum [2]): < 21.2 nM
- EC50 (Plasmodium falciparum [3]): > 1250 nM

SMILES: COc1ccc(OC)c(C(=O)c2oc3ccccc3c2NC(=O)CCl)c1
- CC50 [1]: 15.5 µM
- EC50 (Plasmodium falciparum [2]): 1380 nM
- EC50 (Plasmodium falciparum [3]): 10200 nM

SMILES: COc1ccc(C(=O)N(C)CCCNc2ccnc3cc(Cl)ccc23)cc1
- CC50 [1]: > 10 µM
- EC50 (Plasmodium falciparum [2]): 553 nM
- EC50 (Plasmodium falciparum [3]): 797 nM

SMILES: O=[N+]([O-])c1ccc(Cl)c(-c2ccc(C=NNc3nc4ccccc4[nH]3)o2)c1
- CC50 [1]: > 10 µM
- EC50 (Plasmodium falciparum [2]): 801 nM
- EC50 (Plasmodium falciparum [3]): 946 nM

SMILES: C#CCNC(=O)c1ccc(OC2CCN(CC3CCCCC3)CC2)c(Cl)c1
- CC50 [1]: > 100 µM
- EC50 (Plasmodium falciparum [2]): 396 nM
- EC50 (Plasmodium falciparum [3]): 499 nM

SMILES: COc1ccc(-n2nc([N+](=O)[O-])c(Nc3ccc([N+](=O)[O-])cc3C)[n+]2[O-])cc1
- CC50 [1]: > 100 µM
- EC50 (Plasmodium falciparum [2]): 320 nM
- EC50 (Plasmodium falciparum [3]): 1300 nM

SMILES: CCOc1ccccc1NC(=O)Nc1ccc2nc(N3CCN(C)CC3)cc(C)c2c1
- CC50 [1]: 21.4 µM
- EC50 (Plasmodium falciparum [2]): 456 nM
- EC50 (Plasmodium falciparum [3]): 1160 nM
